For the experiment, the system named is A2780 cells. The experiment can be described thus: In vitro cell proliferation assay (WST-1 assay). Type of experiment: cell-based. The note with it: Homo sapiens, total incubation time 72 h, WST-1 viable cell readout. On the procedure: A2780 cells were seeded in 96-well plates at 3×10^3 cells/well in 100 μL of culture medium, 8 wells were left empty for media only controls.
After 24 h the compound titrations were performed, in a separate dilution plate, by serially diluting the compounds of general formula (I) in culture medium. A 100 μL of each dilution was added to the plated cells, this was done in triplicate, and controls (e.g. DMSO and blanks) were included. The plates were incubated for 24 h at 37° C. in a CO2 incubator. The compound titrations were repeated in a separate dilution plate after 24 h. The media plus compound from the assay plates were then aspirated. A 100 μL of media was then added to all wells, followed by 100 μL of each compound dilution. The plates were incubated for a further 48 h at 37° C. in a CO2 incubator (total incubation time 72 h). The number of viable cells was then assessed using Cell Proliferation Reagent WST-1. 10 μL of WST-1 reagent added to each well and incubated for one to four hours at 37° C. in CO2 incubator. The absorbance was measured (450 nm/690 nm).
The activity of compounds of general formula (I) in reducing the number of viable cells was calculated as: % activity=[(S^C−B)/(S^O−B)]×100
S^C denotes signal measured in the presence of test compound, S^O denotes signal detected in the absence of compound, and B denotes background signal, measured in blank wells containing medium only. Analyse data using GraphPad Prism.
A general note: Tetrazolium dyes change colour on reduction, which living cells bring about.

As usually defined, the IC50 is the midpoint of a concentration-inhibition curve. A higher IC50 goes with weaker potency.

Where a name gives a salt, the structure may show the parent alone.

Regarding `O=C(NCCCCCCS(=O)(=O)NOCC1CCCCC1)Nc1ccncc1` [Compound 1001, N-(cyclohexylmethoxy)-6-(3-pyridin-4-ylureido)hexane-1-sulfonamide], the IC50 is 13.5 nM. In other words, the double-digit nanomolar range.
Regarding `O=C(NCCCCCCC(=O)N(OCCN1CCOCC1)C1CCCCC1)Nc1ccncc1` [Compound 1002, N-Cyclohexyl-N-(2-morpholinoethoxy)-7-(3-pyridin-4-ylureido)heptanamide], half-maximal inhibition (IC50) required 1.49 nM.
The same measure for `O=S(=O)(CCCCCCNC(=S)Nc1ccncc1)N(OCCN1CCOCC1)C1CCCCC1` [Compound 1005, N-Cyclohexyl-N-(2-morpholinethoxy)-6-(3-pyridin-4-ylthioureido)hexane-1-sulfonamide oxalate]: 0.34 nM.
As for `O=C(NCCCCCCS(=O)(=O)N(OCCN1CCOCC1)C1CCCCC1)Nc1ccncc1` [Compound 1008, N-Cyclohexyl-N-(2-morpholinethoxy)-6-(3-pyridin-4-ylureido)hexane-1-sulfonamide oxalate], the midpoint of inhibition, the IC50, lay at 0.23 nM. The IC50 values of the last two compounds are within 1.5-fold of each other.
The same measure for `O=C(NCCCCCCC(=O)N(OCCN1CCOCC1)C1CCCCC1)NCc1cccnc1` [Compound 1009, N-cyclohexyl-N-(2-morpholinoethoxy)-7-(3-(pyridin-3-ylmethyl)ureido)heptanamide]: 0.33 nM.
The value for `COCCOCCOCCN(OCC1CCCCC1)S(=O)(=O)CCCCCCNC(=O)NCc1cccnc1` [Compound 1013, N-(cyclohexylmethoxy)-N-(2-(2-(2-methoxyethoxy)ethoxy)ethyl)-6-(3-(pyridin-3-ylmethyl)ureido)hexane-1-sulfonamide] was 0.11 nM; that for `O=C(CCCCCCNC(=S)NCc1cccnc1)N(OCCN1CCOCC1)C1CCCCC1` [Compound 1015, N-cyclohexyl-N-(2-morpholinoethoxy)-7-(3-(pyridin-3-ylmethyl)thioureido)heptanamide] was 0.89 nM.
The value for `O=C(NCCCCCCS(=O)(=O)N1CCCCO1)NCc1cccnc1` [Compound 1018, hydrochloride] was 14 nM.
Compound `O=C(NCCCCCCC(=O)N(OCCN1CCOCC1)C1CCCCC1)NCCc1cccnc1` [Compound 1020] yielded a half-inhibitory concentration (IC50) of 1.34 nM. This IC50 is about 10-fold lower than that of the compound before.
The value for `CC(C)N(OCCN1CCOCC1)S(=O)(=O)CCCCCCNC(=O)NCc1cccnc1` [Compound 1022, N-Isopropyl-N-(2-morpholinoethoxy)-6-(3-(pyridin-3-ylmethyl)ureido)hexane-1-sulfonamide] was 2.23 nM; that for `O=C(NCCCCCCS(=O)(=O)N(CCCN1CCOCC1)C1CCCCC1)Nc1ccncc1` [Compound 1026, N-Cyclohexyl-N-(3-morpholinopropyl)-6-(3-pyridin-4-ylureido)hexane-1-sulfonamide] was 0.23 nM; that for `O=C(NCCCCCCS(=O)(=O)N(CCN1CCOCC1)OCC1CCCCC1)NCc1cccnc1` [Compound 1031, N-(cyclohexylmethoxy)-N-(2-morpholinoethyl)-6-(3-(pyridin-3-ylmethyl)ureido)hexane-1-sulfonamide] was 0.13 nM.
Consider `O=C(NCCCCCCS(=O)(=O)N(CCN1CCOCC1)OCC1CCCCC1)NCCc1cccnc1` [Compound 1032, N-(cyclohexylmethoxy)-N-(2-morpholinoethyl)-6-(3-(2-(pyridin-3-yl)ethyl)ureido)hexane-1-sulfonamide], for which half-maximal inhibition (IC50) required 14.1 nM.
The value for `O=C(NCCCCCS(=O)(=O)N(OCCN1CCOCC1)C1CCCCC1)NCc1cccnc1` [Compound 1042] was 6.64 nM; that for `O=C(NCCCCCCCS(=O)(=O)N(OCCN1CCOCC1)C1CCCCC1)NCc1cccnc1` [Compound 1043] was 0.37 nM; that for `CC(C)N(CCCN1CCOCC1)S(=O)(=O)CCCCCCNC(=O)Nc1ccncc1` [Compound 1049, N-Isopropyl-N-(3-morpholinopropyl)-6-(3-pyridin-4-ylureido)hexane-1-sulfonamide] was 0.6 nM.
Turning to `O=C(NCCCCCCS(=O)(=O)N(OCCN1CCOCC1)C1CCCC1)NCc1cccnc1` [Compound 1056, N-Cyclopentyl-N-(2-morpholinoethoxy)-6-(3-(pyridin-3-ylmethyl)ureido)hexane-1-sulfonamide], the IC50 turned out to be 0.58 nM.
The same measure for `O=C(NCCCCCCS(=O)(=O)N(OCCN1CCOCC1)C1CCCCCC1)NCc1cccnc1` [Compound 1058, N-Cycloheptyl-N-(2-morpholinoethoxy)-6-(3-(pyridin-3-ylmethyl)ureido)hexane-1-sulfonamide]: 0.63 nM.
In turn, `O=S(=O)(CCCCCCNC(=S)Nc1ccncc1)N(CCCN1CCOCC1)C1CCCC1` [Compound 1064, N-Cyclopentyl-N-(3-morpholinopropyl)-6-(3-pyridin-4-ylthioureido)hexane-1-sulfonamide] displayed a half-maximal inhibitory concentration (IC50) of 0.55 nM.
The same measure for `O=C(NCCCCCCC(=O)N(OCCN1CCOCC1)C1CCCCC1)Nc1cccnc1` [Compound 1065, N-Cyclohexyl-N-(2-morpholinoethoxy)-7-(3-pyridin-3-ylureido)heptanamide]: 0.22 nM; for `O=C(NCCCCCCS(=O)(=O)N(CCCN1CCOCC1)C1CCCC1)Nc1ccncc1` [Compound 1066, N-Cyclopentyl-N-(3-morpholinopropyl)-6-(3-pyridin-4-ylureido)hexane-1-sulfonamide]: 0.27 nM.
On to `CCOP(=O)(CCCCCCNC(=O)NCc1cccnc1)NC1CCCCC1` (centres unmarked) [Compound 1067, Ethyl N-cyclohexyl-P-(6-(3-pyridin-3-ylmethyl)ureido)phosphonamidate], for which the IC50 was found to be 0.79 nM.
The value for `O=C(NCCCCCS(=O)(=O)N(CCCN1CCOCC1)C1CCCC1)NCc1cccnc1` [Compound 1069, N-cyclopentyl-N-(3-morpholinopropyl)-5-(3-(pyridin-3-ylmethyl)ureido)pentane-1-sulfonamide] was 3.04 nM.
Compound `CCOP(=O)(CCCCCCNC(=O)NCc1cccnc1)N1CCCCO1` (centres unmarked) [Compound 1072] had an IC50 of 2.4 nM.
The value for `O=C(NCCCCCCS(=O)(=O)N(OCCN1CCOCC1)C1CCCCC1)NCc1cccnc1` [Compound 1075, N-Cyclohexyl-N-(2-morpholinoethoxy)-6-(3-(pyridin-3-ylmethyl)ureido)hexane-1-sulfonamide oxalate] was 1.64 nM.
`O=C(NCCCCCCS(=O)(=O)Nc1ccccc1)NCc1cccnc1` [Compound 1076, N-Phenyl-6-(3-(pyridin-3-ylmethyl)ureido)hexane-1-sulfonamide] came in with a concentration for half-maximal inhibition (IC50) of 5.4 nM.
`O=C(NCCCCCCS(=O)(=O)N(CCN1CCOCC1)OCc1ccccc1)NCc1cccnc1` [Compound 1078, N-(Benzyloxy)-N-(2-morpholinoethyl)-6-(3-(pyridin-3-ylmethyl)ureido)hexane-1-sulfonamide] yielded an IC50 of 0.46 nM.
The value for `O=S(=O)(CCCCCCNC(=S)Nc1ccncc1)N(CCCN1CCOCC1)C1CCCCC1` [Compound 1081, N-Cyclohexyl-N-(3-morpholinopropyl)-6-(3-(pyridin-4-ylthioureido)hexane-1-sulfonamide oxalate] was 0.83 nM; that for `O=S(=O)(CCCCCCNC(=S)Nc1ccncc1)N(OCCN1CCOCC1)C1CCCC1` [Compound 1082] was 0.053 nM; that for `O=S(=O)(CCCCCNC(=S)Nc1ccncc1)N(OCCN1CCOCC1)C1CCCC1` [Compound 1083, N-Cyclopentyl-N-(2-morpholinoethoxy)-5-(3-(pyridin-4-ylthioureido)pentane-1-sulfonamide oxalate] was 3.92 nM.
The value for `O=S(=O)(CCCCCCNC(=S)Nc1ccncc1)N(CCF)OCC1CCCCC1` [Compound 1087, N-(cyclohexylmethoxy)-N-(2-fluoroethyl)-6-(3-pyridin-4-ylthioureido)hexane-1-sulfonamide] was 1.36 nM; that for `O=C(NCCCCCCS(=O)(=O)N(CCF)OCC1CCCCC1)Nc1ccncc1` [Compound 1088, N-(cyclohexylmethoxy)-N-(2-fluoroethyl)-6-(3-pyridin-4-ylureido)hexane-1-sulfonamide] was 0.13 nM; that for `O=C(NCCCCCCS(=O)(=O)N(CCF)OCC1CCCCC1)NCc1cccnc1` [Compound 1089, N-(cyclohexylmethoxy)-N-(2-fluoroethyl)-6-(3-(pyridin-3-ylmethyl)ureido)hexane-1-sulfonamide] was 2.04 nM.
The same measure for `O=C(NCCCCCCS(=O)(=O)N(OCCN1CCOCC1)C1CCCC1)Nc1ccncc1` [Compound 1090]: 0.15 nM; for `O=C(/C=C/c1cccnc1)NCCCCC1CCN(C(=O)c2ccccc2)CC1` [FK866, reference compound]: 0.1 nM.

The record behind these values is patent US8871747B2, “Urea and thiourea derivatives” (Topotarget A/S, priority 2008, dated 2014).
